In US20230114728A1 (Venatorx Pharmaceuticals, Inc., priority 2019, published 2023):
≈ marks a conversion by molar mass, not a printed value.

Legend:
Assay type in all cases: cell-based
[1] = tested on: A. baumannii ATCC 19606; test: Broth microdilution MIC in CAMHB; conditions: Acinetobacter baumannii, ATCC19606; MHB; read-out: Minimum Inhibitory Concentration, A. baumannii ATCC 19606
Summary of the method: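 Hyper-permeable or efflux-deficient strains serve to probe outer-membrane penetration. Growth inhibition is scored visually after 16-20 h at 37° C in CAMHB, starting from 2-8×10^5 CFU/mL.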

[2] = tested on: E. coli AG100A; test: Broth microdilution MIC in CAMHB; conditions: Escherichia coli, read-out: Minimum Inhibitory Concentration, E. coli AG100A
Summary of the method: (§1)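 Colonies from cation-adjusted Mueller Hinton agar are grown in broth (3-5 h, 37° C), adjusted by OD600, and added at 2-8×10^5 CFU/mL to 2-fold compound dilutions. After 16-20 h at 37° C, the lowest concentration without growth is taken as MIC.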

[3] = tested on: E. coli AG100; test: Broth microdilution MIC in CAMHB; conditions: Escherichia coli; E. coli AG100 (wild-type parent); MHB; read-out: Minimum Inhibitory Concentration, E. coli AG100
Summary of the method: as §1

[4] = tested on: E. coli ATCC 25922; test: Broth microdilution MIC in CAMHB; conditions: Escherichia coli, ATCC25922; E. coli ATCC 25922; MHB; read-out: Minimum Inhibitory Concentration, E. coli 25922
Summary of the method: as §1

[5] = tested on: E. coli D22; test: Broth microdilution MIC in CAMHB; conditions: Escherichia coli; E. coli D22 (hyper-permeable); MHB; read-out: Minimum Inhibitory Concentration, E. coli D22
Summary of the method: as §1

[6] = tested on: N. gonorrhoeae ATCC 49226; test: Liquid broth MIC in Fastidious broth; conditions: Neisseria gonorrhoeae, ATCC49226; N. gonorrhoeae strain ATCC 49226; Fastidious broth; read-out: Minimum Inhibitory Concentration, N. gonorrhoeae ATCC 49226
Summary of the method: (§2)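 Colonies were swabbed from chocolate agar after 24 h growth and standardised by optical density at 600 nm. Compounds were serially diluted twofold in Fastidious broth, and bacteria added to give 5×10^5 CFU/mL. After about 24 h at 36 °C in 5% CO2, the lowest concentration allowing under 10% growth was taken as MIC.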

[7] = tested on: N. gonorrhoeae FA1090; test: Liquid broth MIC in Fastidious broth; conditions: Neisseria gonorrhoeae; N. gonorrhoeae strain FA1090; Fastidious broth; read-out: Minimum Inhibitory Concentration, N. gonorrhoeae FA1090
Summary of the method: as §2

[8] = tested on: N. gonorrhoeae H041; test: Liquid broth MIC in Fastidious broth; conditions: Neisseria gonorrhoeae, H041, read-out: Minimum Inhibitory Concentration, N. gonorrhoeae H041
Summary of the method: as §2

[9] = tested on: N. gonorrhoeae WHO G; test: Liquid broth MIC in Fastidious broth; conditions: Neisseria gonorrhoeae; N. gonorrhoeae strain WHO G; Fastidious broth; read-out: Minimum Inhibitory Concentration, N. gonorrhoeae WHO G
Summary of the method: as §2

[10] = tested on: N. gonorrhoeae WHO K; test: Liquid broth MIC in Fastidious broth; conditions: Neisseria gonorrhoeae, read-out: Minimum Inhibitory Concentration, N. gonorrhoeae WHO K
Summary of the method: as §2

[11] = tested on: N. gonorrhoeae WHO L; test: Liquid broth MIC in Fastidious broth; conditions: Neisseria gonorrhoeae; N. gonorrhoeae strain WHO L; Fastidious broth; read-out: Minimum Inhibitory Concentration, N. gonorrhoeae WHO L
Summary of the method: as §2

Structure (SMILES) | MIC [1] | MIC [2] | MIC [3] | MIC [4] | MIC [5] | MIC [6] | MIC [7] | MIC [8] | MIC [9] | MIC [10] | MIC [11]
NCCN1CCN(C(=O)N[C@@H](C(=O)N[C@H]2Cc3cccc(C(=O)O)c3OB2O)c2cc(Cl)c(O)cc2Cl)C(=O)C1=O [Example 90, (R)-3-((R)-2-(4-(2-aminoethyl)-2,3-dioxopiperazine-1-carboxamido)-2-(2,5-dichloro-4-hydroxyphenyl)acetamido)-2-hydroxy-3,4-dihydro-2H-benzo[e][1,2]oxaborinine-8-carboxylic acid] | > 128 µg/mL | 32 to 64 µg/mL (≈ 52.6 to 105 µM) | 32 to 64 µg/mL (≈ 52.6 to 105 µM) | > 128 µg/mL | 8 to 16 µg/mL (≈ 13.2 to 26.3 µM) | > 64 µg/mL | 4 to 8 µg/mL (≈ 6.58 to 13.2 µM) | > 64 µg/mL | 16 to 32 µg/mL (≈ 26.3 to 52.6 µM) | > 64 µg/mL | > 64 µg/mL
NCCN1CCN(C(=O)NC(C(=O)N[C@H]2Cc3cccc(C(=O)O)c3OB2O)c2cc(F)c(O)cc2F)C(=O)C1=O (stereo partly drawn) [Example 93, (3R)-3-(2-(4-(2-aminoethyl)-2,3-dioxopiperazine-1-carboxamido)-2-(2,5-difluoro-4-hydroxyphenyl)acetamido)-2-hydroxy-3,4-dihydro-2H-benzo[e][1,2]oxaborinine-8-carboxylic acid] | > 128 µg/mL | 2 to 4 µg/mL (≈ 3.48 to 6.95 µM) | 8 to 16 µg/mL (≈ 13.9 to 27.8 µM) | 8 to 16 µg/mL (≈ 13.9 to 27.8 µM) | 2 to 4 µg/mL (≈ 3.48 to 6.95 µM) | > 64 µg/mL | 1 to 2 µg/mL (≈ 1.74 to 3.48 µM) | > 64 µg/mL | 4 to 8 µg/mL (≈ 6.95 to 13.9 µM) | > 64 µg/mL | > 64 µg/mL
NCCN1CCN(C(=O)NC(C(=O)N[C@H]2Cc3cccc(C(=O)O)c3OB2O)c2c(F)cc(O)cc2Cl)C(=O)C1=O (stereo partly drawn) [Example 94, (3R)-3-(2-(4-(2-aminoethyl)-2,3-dioxopiperazine-1-carboxamido)-2-(2-chloro-6-fluoro-4-hydroxyphenyl)acetamido)-2-hydroxy-3,4-dihydro-2H-benzo[e][1,2]oxaborinine-8-carboxylic acid] | > 128 µg/mL | 2 to 4 µg/mL (≈ 3.38 to 6.76 µM) | 32 to 64 µg/mL (≈ 54.1 to 108 µM) | 32 to 64 µg/mL (≈ 54.1 to 108 µM) | 8 to 16 µg/mL (≈ 13.5 to 27 µM) | > 64 µg/mL | 4 to 8 µg/mL (≈ 6.76 to 13.5 µM) | > 64 µg/mL | 16 to 32 µg/mL (≈ 27 to 54.1 µM) | > 64 µg/mL | > 64 µg/mL
CCN1CCN(C(=O)NC(C(=O)N[C@H]2Cc3cccc(C(=O)O)c3OB2O)c2c(F)cc(O)cc2Cl)C(=O)C1=O (stereo partly drawn) [Example 95, (3R)-3-(2-(2-chloro-6-fluoro-4-hydroxyphenyl)-2-(4-ethyl-2,3-dioxopiperazine-1-carboxamido)acetamido)-2-hydroxy-3,4-dihydro-2H-benzo[e][1,2]oxaborinine-8-carboxylic acid] | > 128 µg/mL | 0.5 to 1 µg/mL (≈ 0.867 to 1.73 µM) | 8 to 16 µg/mL (≈ 13.9 to 27.7 µM) | 8 to 16 µg/mL (≈ 13.9 to 27.7 µM) | 0.5 to 1 µg/mL (≈ 0.867 to 1.73 µM) | 4 to 8 µg/mL (≈ 6.94 to 13.9 µM) | < 0.125 µg/mL | 16 to 32 µg/mL (≈ 27.7 to 55.5 µM) | 1 to 2 µg/mL (≈ 1.73 to 3.47 µM) | 16 to 32 µg/mL (≈ 27.7 to 55.5 µM) | 16 to 32 µg/mL (≈ 27.7 to 55.5 µM)
CCN1CCN(C(=O)NC(C(=O)N[C@H]2Cc3cccc(C(=O)O)c3OB2O)c2cccc(NC(=O)c3cncnc3)c2)C(=O)C1=O (stereo partly drawn) [Example 96, (3R)-3-(2-(4-ethyl-2,3-dioxopiperazine-1-carboxamido)-2-(3-(pyrimidine-5-carboxamido)phenyl)acetamido)-2-hydroxy-3,4-dihydro-2H-benzo[e][1,2]oxaborinine-8-carboxylic acid] | > 128 µg/mL | 8 to 16 µg/mL (≈ 12.7 to 25.4 µM) | > 128 µg/mL | > 128 µg/mL | 8 to 16 µg/mL (≈ 12.7 to 25.4 µM) | > 64 µg/mL | 4 to 8 µg/mL (≈ 6.36 to 12.7 µM) | > 64 µg/mL | 16 to 32 µg/mL (≈ 25.4 to 50.8 µM) | > 64 µg/mL | > 64 µg/mL
CCN1CCN(C(=O)NC(C(=O)N[C@H]2Cc3cccc(C(=O)O)c3OB2O)c2cccc(NC(=O)c3cccnc3)c2)C(=O)C1=O (stereo partly drawn) [Example 97, (3R)-3-(2-(4-ethyl-2,3-dioxopiperazine-1-carboxamido)-2-(3-(nicotinamido)phenyl)acetamido)-2-hydroxy-3,4-dihydro-2H-benzo[e][1,2]oxaborinine-8-carboxylic acid] | > 128 µg/mL | 8 to 16 µg/mL (≈ 12.7 to 25.5 µM) | > 128 µg/mL | > 128 µg/mL | 8 to 16 µg/mL (≈ 12.7 to 25.5 µM) | > 64 µg/mL | 1 to 2 µg/mL (≈ 1.59 to 3.18 µM) | > 64 µg/mL | 4 to 8 µg/mL (≈ 6.37 to 12.7 µM) | > 64 µg/mL | > 64 µg/mL
